For series [1], the system named is pentylenetetrazole (Metrazol) induced seizures. Kind of series: Subcutaneous pentylenetetrazole (Metrazol) seizure threshold test (Met) in mice. The class given is in vivo, male Carworth Farms number-1 mice. Particulars: for (Maximum Ineffective) Intraperitoneal Dose, Met: Table 7, value in parentheses = maximum ineffective dose; for minimal effective dose: Mus musculus, ip; for Sc MET: mice i.p. The procedure: (§1) Compounds were screened for anticonvulsant activity in male Carworth Farms number-1 mice. Test solutions of all compounds were prepared in 30% polyethylene glycol 400, and animals were dosed intraperitoneally at either 30 minutes or 4 hours prior to testing. Testing was conducted on four mice at each of three dose levels (30, 100, and 300 mg/kg).
(§2) In the subcutaneous pentylenetetrazole (Metrazol) seizure threshold test(met), 85 mg/kg pentylenetetrazole was administered as a 0.5% solution in the posterior midline. Protection in this test was defined as a failure to observe a single episode of clonic spasms of at least 5 s duration during the 30 minute period following administration of the convulsive agent.
(§3) Biological testing--Compounds were screened for anticonvulsant activity in male Carworth Farms number-one mice. Test solutions of all compounds were prepared in 30% polyethylene glycol 400, and animals were dosed intraperitoneally at either 30 min or 4 h prior to testing. Testing was conducted on four mice at each of three dose levels (30, 100, and 300 mg/kg).
(§4) In the subcutaneous pentylenetetrazole (Metrazol) seizure threshold test (Met), 85 mg/kg pentylenetetrazole was administered as a 0.5% solution in the posterior midline. Protection in this test was defined as a failure to observe a single episode of clonic spasms of at least 5 s duration during the 30 min period following administration of the convulsive agent.

The target of series [2] is T1, strychnine-insensitive glycine binding site of the NMDA receptor (Rattus norvegicus, UniProt P35439).
T1 construct: Membranes were prepared from rat cerebral cortex; from tissue; host or cells: rat cerebral cortex, "buffy coat" membranes
Kind of series: Inhibition of [3H]glycine specific binding (strychnine-insensitive) in rat cerebral cortex membranes. The note with it: 10 uM compound. The procedure: Binding Studies--Inhibition of [^3 H]glycine specific binding was assayed using [^3 H]glycine (43 Ci/mmol) obtained from DuPont-New England Nuclear. […] Membranes were prepared from rat cerebral cortex and assays were conducted in Na-free 50 mM HEPES (Sigma) at pH 7.4. Membranes were incubated in a final volume of 1 ml with 20 nM [^3 H]glycine and a 10 uM concentration of the test compound. Although experience has shown that [^3 H]glycine binding in this preparation is strychnine insensitive, 10 uM strychnine was added to the assay mixtures to eliminate the possibility that any effects studied could be mediated through a strychnine-sensitive process. Incubation was continued for 20 min at 4° C. Non-specific binding was determined in the presence of 1 mM glycine and subtracted. All conditions were tested in triplicate in 3 different assays. Binding was terminated using a Brandel M-24C cell harvester employing rapid filtration through GF/C glass fiber filters pre-soaked in 1% (V/V) polyethylenimine. Filters were washed twice with 5 ml buffer cooled to 4° C. Radioactivity bound to the filters was determined with a Beckman LS-500OTD liquid scintillation counter.

The subject of series [3] is seizures induced by electroshock and pentylenetetrazole. Description: Anticonvulsant testing, overall (MES and Met). The series is classed as in vivo, male Carworth Farms number-1 mice. Particulars: for CLASS: Phase I Identification: mice, i.p., classes not defined in the patent. The procedure: as §1
(§5) Maximal electroshock seizures (MES) were elicited with a 60 cycle alternatiing current of 50-mA intensity (five to seven times that necessary to evoke minimal electroshock threshold seizures). Current was delivered via corneal electrodes for 0.2 s. A drop of 0.9% saline was instilled in the eye prior to application of electrodes. Abolition of the hindlimb tonic extension component of the seizure was defined as protection in the MES test.
as §2, §3
(§6) Maximal electroshock seizures (MES) were elicited with a 60 cycle alternating current of 50-mA intensity (five to seven times that necessary to evoke minimal electroshock threshold seizures). Current was delivered via corneal electrodes for 0.2 s. A drop of 0.9% saline was instilled in the eye prior to application of electrodes. Abolition of the hindlimb tonic extension component of the seizure was defined as protection in the MES test.
as §4

The subject of series [4] is neurological deficit (rotorod). Description: Rotorod test for neurological deficit (TOX) in mice. The class given is in vivo, male Carworth Farms number-1 mice. As for the experimental part:
as §1
Animals were also tested for neurological deficit using the rotorod. After treatment, the animal was placed on a 1 inch diameter knurled plastic rod rotating at 6 rpm. Neurologic deficit was defined as the failure of the animal to remain on the rod for 1 minute.
as §3
Animals were also tested for neurological deficit using the rotorod. After treatment, the animal was placed on a 1 inch diameter knurled plastic rod rotating at 6 rpm. Neurologic deficit was defined as the failure of the animal to remain on the rod for 1 min.

In series [5] the test system is maximal electroshock seizures (MES). Kind of series: animal or person. The series is classed as in vivo, male Carworth Farms number-1 mice. The note with it: for MES: mice i.p.; for minimal effective dose: Mus musculus, ip. The procedure:
as §1, §5, §3, §6

Where [6] appears, read: Table 7, value without parentheses = effective dose (neurologic deficit).
Setting [7] is: Table 7, value without parentheses = effective dose, read-out: Effective Intraperitoneal Dose, Met.
Setting [8] is: mice, intraperitoneal, read-out: dose active in Met test.

The source of these data is patent US5493027A, “Anticonvulsive agents and uses thereof” (priority 1993, dated 1996).

Entries after “also recorded” stand apart in the source; their conditions may differ. Where two headings read alike, the source gives them in different places.

Consider `O=C(O)c1cccc(C(=O)O)n1` [2,6-pyridine dicarboxylic acid, pyridine-2,6-dicarboxylic acid], for which the “(Maximum Ineffective) Intraperitoneal Dose, Met” value in series [1] worked out at 300 mg/kg. The “[3H]glycine binding inhibition” value in series [2] was “no glycine displacement; also recorded: did neither”. Further, the “anticonvulsant activity (words)” value in series [3] (mice, intraperitoneal) is given as “did neither”. In addition, the “Effective Intraperitoneal Dose, Rotorod” value in series [4] (setting [6]) is listed as 300 mg/kg. The “crossing of the blood-brain barrier” value in series [4] (evidenced by the rotorod test) was “did cross the blood-brain barrier”. Further, in series [4] (mice, intraperitoneal), the “dose causing neurological deficit on rotorod” value was found to be 300 mg/kg.
For `CCOC(=O)c1cccc(C(=O)OCC)n1` [2,6-pyridine-di-(ethyl carboxylate), 2,6-pyridine-di(ethyl carboxylate)], the minimal effective dose in series [1] (setting [7]) turned out to be 100 mg/kg; in series [1] (setting [8]) it was 100 mg/kg; in series [3] (Mus musculus, ip, mice, intraperitoneal, read-out: dose level with anticonvulsant activity (test not given)), 100 mg/kg. Further, the “[3H]glycine binding inhibition” value was “potent [^3 H]glycine displacement” in series [2] and “inhibited glycine binding” in series [2] (listed as diethyl ester of pyridine-2,6-dicarboxylic acid). Further, the “anticonvulsant activity (words)” value in series [3] (mice, intraperitoneal) was “had anticonvulsant activity”. Moreover, the “Effective Intraperitoneal Dose, Rotorod” value in series [4] (mouse, in vivo, ip) came to 300 mg/kg. Further, in series [4] (mouse, in vivo, ip), the “dose causing neurological deficit on rotorod” value was 300 mg/kg.
On to `Nc1cc(C(=O)O)nc2cc(Cl)cc(Cl)c12` [4-amino-5,7-dichloro-2-quinoline carboxylate acid], for which the “Sc MET” value in series [1] (30 minutes, 30 mg/kg) is on record as 0/1; in series [1] (30 minutes, 100 mg/kg) it was 0/1; in series [1] (30 minutes, 300 mg/kg), 0/1; in series [1] (4 hours, 30 mg/kg) it was 0/1; in series [1] (4 hours, 100 mg/kg), 0/1; in series [1] (4 hours, 300 mg/kg), 0/1. The CLASS in series [3] turned out to be 3. Further, the “anticonvulsant activity (words)” value in series [3] (mice, intraperitoneal) is “lack of anticonvulsive activity”. In addition, the MES in series [5] (30 minutes, 30 mg/kg) is on record as 0/1; in series [5] (30 minutes, 100 mg/kg), 0/3; in series [5] (30 minutes, 300 mg/kg) it was 0/1; in series [5] (4 hours, 30 mg/kg), 0/1; in series [5] (4 hours, 100 mg/kg), 0/3; in series [5] (4 hours, 300 mg/kg), 0/1.
Regarding `COC(=O)c1cc(N)c2c(Cl)cc(Cl)cc2n1` [4-amino-5,7-dichloro-2-quinoline carboxylate methyl ester], the “Sc MET” value is 0/1 in series [1] (30 minutes, 30 mg/kg); 1/1 in series [1] (30 minutes, 100 mg/kg); 0/1 in series [1] (30 minutes, 300 mg/kg); 0/1 in series [1] (4 hours, 30 mg/kg); 0/1 in series [1] (4 hours, 100 mg/kg); 0/1 in series [1] (4 hours, 300 mg/kg). Besides, the CLASS in series [3] was 1. In addition, the MES in series [5] (30 minutes, 30 mg/kg) is 0/1; in series [5] (30 minutes, 100 mg/kg), 0/3; in series [5] (30 minutes, 300 mg/kg), 0/1; in series [5] (4 hours, 30 mg/kg) it was 0/1; in series [5] (4 hours, 100 mg/kg), 1/3; in series [5] (4 hours, 300 mg/kg), 1/1.
On to `CNc1cc(C(=O)OC)nc2cc(Cl)cc(Cl)c12` [4-methylamino-5,7-dichloro quinoline 2-carboxylate methyl ester], for which the “Sc MET” value was 0/1 in series [1] (30 minutes, 30 mg/kg); 0/1 in series [1] (30 minutes, 100 mg/kg); 0/1 in series [1] (30 minutes, 300 mg/kg); 0/1 in series [1] (4 hours, 30 mg/kg); 0/1 in series [1] (4 hours, 100 mg/kg); 0/1 in series [1] (4 hours, 300 mg/kg). The CLASS in series [3] turned out to be 3. Moreover, the “anticonvulsant activity (words)” value is “inactive” in series [3] (mice, intraperitoneal); “lack of anticonvulsant activity” in series [3] (mice, intraperitoneal, listed as 4-methylamino-5,7-dichloro quinoline 2-carboxylate methyl ester); “inactive in anticonvulsant testing” in series [3] (mice, intraperitoneal, listed as 5,7-di-Cl-4-methylamino-2-methyl ester). Further, the MES in series [5] (30 minutes, 30 mg/kg) is 0/1; in series [5] (30 minutes, 100 mg/kg), 0/3; in series [5] (30 minutes, 300 mg/kg) it was 0/1; in series [5] (4 hours, 30 mg/kg), 0/1; in series [5] (4 hours, 100 mg/kg), 0/3; in series [5] (4 hours, 300 mg/kg), 0/1.
As for `CCOC(=O)c1cc(O)c2c(Cl)cc(Cl)cc2n1` [5,7 0-di-Cl-2-ethyl ester, 5,7-dichloro-kynurenate ethyl ester], the “anticonvulsant activity (words)” value in series [3] (mice, intraperitoneal) is “inactive”.
As for `CCOC(=O)c1cc2cc(Cl)ccc2[nH]1` [5-Cl-2-ethyl ester], the “[3H]glycine binding inhibition” value in series [2] is “inactive”. The “anticonvulsant activity (words)” value in series [3] (mice, intraperitoneal) is “inactive; also recorded: abolished activity”.
On to `O=C(O)c1cc2cc(Cl)ccc2[nH]1` [5-Cl-indole-2-COOH, 5-chloro-indole-2-carboxylic acid], for which the minimal effective dose in series [1] (setting [7]) and in series [1] (setting [8]) was 100 mg/kg each time. The “Met activity” value in series [1] (mice, intraperitoneal) was “Met protection”. For the same compound, the “[3H]glycine binding inhibition” value in series [2] was “binding competition similar to that seen with the 5-fluoro derivative”. The “Effective Intraperitoneal Dose, Rotorod” value in series [4] (mouse, in vivo, ip) is listed as 300 mg/kg. Moreover, the “dose causing neurological deficit on rotorod” value in series [4] (mouse, in vivo, ip) was 300 mg/kg.
For `CCOC(=O)c1cc2cc(O)ccc2[nH]1` [5-hydroxyl-2-ethyl ester], the “[3H]glycine binding inhibition” value in series [2] is recorded as “binding activity”. The “anticonvulsant activity (words)” value in series [3] (mice, intraperitoneal) was “no CNS effects”.
Consider `COc1ccc2[nH]c(C(=O)O)cc2c1` [5-methoxy-indole-2-COOH], for which the “(Maximum Ineffective) Intraperitoneal Dose, Met” value in series [1] stood at 300 mg/kg. Further, in series [3] (mice, intraperitoneal), the “anticonvulsant activity (words)” value is recorded as “no anticonvulsant activity”. In series [4] (mouse, in vivo, ip), the “Effective Intraperitoneal Dose, Rotorod” value is 300 mg/kg.
Regarding `CCOC(=O)c1cc2cc(OC)ccc2[nH]1` [5-methoxy-indole-2-ethyl ester, 5-methoxy-indole-2-ethyl carboxylate], the minimal effective dose turned out to be 100 mg/kg in series [1] (setting [7]); 100 mg/kg in series [1] (setting [8]); 300 mg/kg in series [5] (Table 7, value without parentheses = effective dose, read-out: Effective Intraperitoneal Dose, MES); 300 mg/kg in series [5] (mice, intraperitoneal, read-out: dose active in MES test). Further, the “[3H]glycine binding inhibition” value in series [2] was “did not compete for [^3 H]glycine binding; also recorded: did not inhibit [^3 H]glycine binding”. Also, the “Effective Intraperitoneal Dose, Rotorod” value in series [4] (setting [6]) was 300 mg/kg. The “dose causing neurological deficit on rotorod” value in series [4] (mice, intraperitoneal) is reported as 300 mg/kg.
As for `Cc1cc2c(O)cc(C(=O)O)nc2cc1Cl` [6-CH3-7-Cl-2-COOH], in series [2], the “[3H]glycine binding inhibition” value is “glycine-binding inhibition”. Moreover, the “anticonvulsant activity (words)” value in series [3] (mice, intraperitoneal) is “no anticonvulsant activity”.
As for `CCCCOC(=O)c1cc(NC)c2c(Cl)cc(Cl)cc2n1` [Butyl 4-Methylamino-5,7-dichloro-2-quinoline Carboxylate], the “Sc MET” value is recorded as 0/1 in series [1] (30 minutes, 30 mg/kg); 0/1 in series [1] (30 minutes, 100 mg/kg); 0/1 in series [1] (30 minutes, 300 mg/kg); 0/1 in series [1] (4 hours, 30 mg/kg); 0/1 in series [1] (4 hours, 100 mg/kg); 0/1 in series [1] (4 hours, 300 mg/kg). This compound displayed a CLASS in series [3] of 31. For the same compound, the “anticonvulsant activity (words)” value is “inactive” in series [3] (mice, intraperitoneal); “inactive in anticonvulsant testing” in series [3] (mice, intraperitoneal, listed as 5,7-di-Cl-4-methylamino-2-butyl ester); “lack of anticonvulsant activity” in series [3] (mice, intraperitoneal, listed as ester-4-methylamino-5,7-dichloro quinoline-2-carboxylate n-butyryl). The MES is on record as 0/1 in series [5] (30 minutes, 30 mg/kg); 0/3 in series [5] (30 minutes, 100 mg/kg); 0/1 in series [5] (30 minutes, 300 mg/kg); 0/1 in series [5] (4 hours, 30 mg/kg); 0/3 in series [5] (4 hours, 100 mg/kg); 0/1 in series [5] (4 hours, 300 mg/kg).
